Assay results taken from paper PMC8222254, “Self-assembly of an anion receptor with metal-dependent kinase inhibition and potent in vitro anti-cancer properties” (Nature Communications, 2021).
Values joined by “and” are separate entries in the source; they are usually repeats but may differ in a detail not shown here. Identical values can stand only once.

What was measured:
Assay in all cases: Kinase inhibition screen, cell-free 33P ATP assay at 10 μM
Assay type in all cases: biochemical
[1] = molecular target: 140 purified human kinases (Homo sapiens, UniProt O75116); conditions: ROCK 2
Procedure, shortened: (§1)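 Radiometric ^33P ATP cell-free format with purified enzymes; both complexes run at 10 μM in duplicate, results plotted on a kinome map via HGNC symbols.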

[2] = molecular target: 140 purified human kinases (Homo sapiens, UniProt P17948); conditions: VEG-FR
Procedure, shortened: as §1

[3] = molecular target: 140 purified human kinases (Homo sapiens, UniProt Q7KZI7)
Procedure, shortened: as §1

[4] = molecular target: T1, 140 purified human kinases (Homo sapiens, UniProt O43781)
T1 sequence (O43781 1-588): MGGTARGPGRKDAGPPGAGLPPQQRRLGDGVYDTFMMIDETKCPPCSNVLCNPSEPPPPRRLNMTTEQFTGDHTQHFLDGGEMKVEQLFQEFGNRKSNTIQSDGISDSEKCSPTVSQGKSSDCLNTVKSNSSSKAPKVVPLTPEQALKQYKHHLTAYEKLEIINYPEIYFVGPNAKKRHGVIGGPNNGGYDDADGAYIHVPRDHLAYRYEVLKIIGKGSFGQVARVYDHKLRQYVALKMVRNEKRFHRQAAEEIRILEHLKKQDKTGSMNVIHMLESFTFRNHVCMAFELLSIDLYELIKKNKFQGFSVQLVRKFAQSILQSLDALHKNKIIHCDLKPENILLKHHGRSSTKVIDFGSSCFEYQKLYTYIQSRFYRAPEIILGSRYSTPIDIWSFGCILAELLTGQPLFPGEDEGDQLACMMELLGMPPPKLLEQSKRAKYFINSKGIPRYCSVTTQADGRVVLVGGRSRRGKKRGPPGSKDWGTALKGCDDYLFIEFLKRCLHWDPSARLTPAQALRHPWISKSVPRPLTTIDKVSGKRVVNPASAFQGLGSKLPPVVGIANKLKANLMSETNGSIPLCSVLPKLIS
Procedure, shortened: as §1

[5] = molecular target: 140 purified human kinases (Homo sapiens, UniProt P53355)
Procedure, shortened: as §1

[6] = molecular target: T2, 140 purified human kinases (Homo sapiens, UniProt P52564)
T2 sequence (P52564 1-334): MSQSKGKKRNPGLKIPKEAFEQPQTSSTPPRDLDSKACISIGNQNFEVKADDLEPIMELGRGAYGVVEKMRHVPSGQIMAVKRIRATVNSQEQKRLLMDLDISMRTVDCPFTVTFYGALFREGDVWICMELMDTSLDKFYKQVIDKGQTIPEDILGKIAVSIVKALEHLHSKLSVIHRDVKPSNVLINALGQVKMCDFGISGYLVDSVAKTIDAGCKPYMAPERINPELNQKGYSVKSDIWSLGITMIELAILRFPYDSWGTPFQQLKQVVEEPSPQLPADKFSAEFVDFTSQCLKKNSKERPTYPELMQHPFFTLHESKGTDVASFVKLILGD
Procedure, shortened: as §1

[7] = molecular target: 140 purified human kinases (Homo sapiens, UniProt Q16539); conditions: p38a MAPK
Procedure, shortened: as §1

[8] = molecular target: 140 purified human kinases (Homo sapiens, UniProt Q9P0L2)
Procedure, shortened: as §1

[9] = molecular target: T3, 140 purified human kinases (Homo sapiens, UniProt Q9UHD2)
T3 sequence (Q9UHD2 1-729): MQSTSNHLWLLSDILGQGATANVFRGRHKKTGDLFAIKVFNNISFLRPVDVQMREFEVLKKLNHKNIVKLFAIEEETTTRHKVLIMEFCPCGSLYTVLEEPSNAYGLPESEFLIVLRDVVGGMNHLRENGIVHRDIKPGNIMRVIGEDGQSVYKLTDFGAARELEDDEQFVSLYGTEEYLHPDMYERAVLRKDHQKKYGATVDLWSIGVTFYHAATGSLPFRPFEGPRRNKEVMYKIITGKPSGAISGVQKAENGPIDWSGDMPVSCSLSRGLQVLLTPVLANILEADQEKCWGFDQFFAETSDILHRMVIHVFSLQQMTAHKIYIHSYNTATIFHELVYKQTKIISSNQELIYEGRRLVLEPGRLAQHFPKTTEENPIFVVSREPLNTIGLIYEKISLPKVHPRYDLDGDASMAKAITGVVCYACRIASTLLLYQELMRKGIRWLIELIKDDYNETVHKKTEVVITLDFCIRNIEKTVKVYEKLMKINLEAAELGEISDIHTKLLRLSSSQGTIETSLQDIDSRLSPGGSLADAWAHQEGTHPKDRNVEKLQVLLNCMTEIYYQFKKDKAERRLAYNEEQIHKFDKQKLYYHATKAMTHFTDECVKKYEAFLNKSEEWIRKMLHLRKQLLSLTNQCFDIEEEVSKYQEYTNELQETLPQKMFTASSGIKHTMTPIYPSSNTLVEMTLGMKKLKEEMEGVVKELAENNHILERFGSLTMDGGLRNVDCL
Procedure, shortened: as §1

Sequence of 140 purified human kinases (Homo sapiens, UniProt Q16539) (Q16539 whole entry): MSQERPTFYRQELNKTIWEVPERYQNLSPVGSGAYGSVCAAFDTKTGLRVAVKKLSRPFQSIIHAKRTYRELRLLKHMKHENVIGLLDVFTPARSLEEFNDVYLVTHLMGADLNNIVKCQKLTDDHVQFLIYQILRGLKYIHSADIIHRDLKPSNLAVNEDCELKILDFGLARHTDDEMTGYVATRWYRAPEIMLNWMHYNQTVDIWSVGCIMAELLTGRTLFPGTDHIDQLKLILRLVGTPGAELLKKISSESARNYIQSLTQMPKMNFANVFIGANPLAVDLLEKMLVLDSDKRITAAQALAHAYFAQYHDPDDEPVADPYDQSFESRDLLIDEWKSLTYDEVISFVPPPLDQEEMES
Sequence of 140 purified human kinases (Homo sapiens, UniProt Q7KZI7) (Q7KZI7 whole entry): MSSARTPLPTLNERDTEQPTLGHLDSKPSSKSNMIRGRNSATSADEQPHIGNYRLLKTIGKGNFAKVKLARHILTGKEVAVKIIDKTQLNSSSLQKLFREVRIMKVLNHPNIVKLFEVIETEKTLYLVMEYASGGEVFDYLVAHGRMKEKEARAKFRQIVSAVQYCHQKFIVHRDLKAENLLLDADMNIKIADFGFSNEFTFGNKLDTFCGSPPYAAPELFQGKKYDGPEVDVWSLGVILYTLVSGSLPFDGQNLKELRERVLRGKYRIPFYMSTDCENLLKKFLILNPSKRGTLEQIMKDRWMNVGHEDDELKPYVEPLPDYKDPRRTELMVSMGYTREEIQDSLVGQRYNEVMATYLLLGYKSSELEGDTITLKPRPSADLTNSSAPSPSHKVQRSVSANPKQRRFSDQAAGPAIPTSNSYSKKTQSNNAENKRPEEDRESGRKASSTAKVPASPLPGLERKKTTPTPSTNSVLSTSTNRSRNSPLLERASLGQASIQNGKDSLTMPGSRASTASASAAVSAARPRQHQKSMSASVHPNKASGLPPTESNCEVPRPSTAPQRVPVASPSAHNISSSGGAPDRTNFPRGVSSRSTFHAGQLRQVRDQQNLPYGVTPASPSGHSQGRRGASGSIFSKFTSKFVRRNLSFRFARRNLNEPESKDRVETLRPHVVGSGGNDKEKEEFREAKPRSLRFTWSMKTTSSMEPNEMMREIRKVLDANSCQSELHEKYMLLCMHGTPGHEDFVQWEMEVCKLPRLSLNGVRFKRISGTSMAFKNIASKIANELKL
Sequence of 140 purified human kinases (Homo sapiens, UniProt P53355) (P53355 whole entry): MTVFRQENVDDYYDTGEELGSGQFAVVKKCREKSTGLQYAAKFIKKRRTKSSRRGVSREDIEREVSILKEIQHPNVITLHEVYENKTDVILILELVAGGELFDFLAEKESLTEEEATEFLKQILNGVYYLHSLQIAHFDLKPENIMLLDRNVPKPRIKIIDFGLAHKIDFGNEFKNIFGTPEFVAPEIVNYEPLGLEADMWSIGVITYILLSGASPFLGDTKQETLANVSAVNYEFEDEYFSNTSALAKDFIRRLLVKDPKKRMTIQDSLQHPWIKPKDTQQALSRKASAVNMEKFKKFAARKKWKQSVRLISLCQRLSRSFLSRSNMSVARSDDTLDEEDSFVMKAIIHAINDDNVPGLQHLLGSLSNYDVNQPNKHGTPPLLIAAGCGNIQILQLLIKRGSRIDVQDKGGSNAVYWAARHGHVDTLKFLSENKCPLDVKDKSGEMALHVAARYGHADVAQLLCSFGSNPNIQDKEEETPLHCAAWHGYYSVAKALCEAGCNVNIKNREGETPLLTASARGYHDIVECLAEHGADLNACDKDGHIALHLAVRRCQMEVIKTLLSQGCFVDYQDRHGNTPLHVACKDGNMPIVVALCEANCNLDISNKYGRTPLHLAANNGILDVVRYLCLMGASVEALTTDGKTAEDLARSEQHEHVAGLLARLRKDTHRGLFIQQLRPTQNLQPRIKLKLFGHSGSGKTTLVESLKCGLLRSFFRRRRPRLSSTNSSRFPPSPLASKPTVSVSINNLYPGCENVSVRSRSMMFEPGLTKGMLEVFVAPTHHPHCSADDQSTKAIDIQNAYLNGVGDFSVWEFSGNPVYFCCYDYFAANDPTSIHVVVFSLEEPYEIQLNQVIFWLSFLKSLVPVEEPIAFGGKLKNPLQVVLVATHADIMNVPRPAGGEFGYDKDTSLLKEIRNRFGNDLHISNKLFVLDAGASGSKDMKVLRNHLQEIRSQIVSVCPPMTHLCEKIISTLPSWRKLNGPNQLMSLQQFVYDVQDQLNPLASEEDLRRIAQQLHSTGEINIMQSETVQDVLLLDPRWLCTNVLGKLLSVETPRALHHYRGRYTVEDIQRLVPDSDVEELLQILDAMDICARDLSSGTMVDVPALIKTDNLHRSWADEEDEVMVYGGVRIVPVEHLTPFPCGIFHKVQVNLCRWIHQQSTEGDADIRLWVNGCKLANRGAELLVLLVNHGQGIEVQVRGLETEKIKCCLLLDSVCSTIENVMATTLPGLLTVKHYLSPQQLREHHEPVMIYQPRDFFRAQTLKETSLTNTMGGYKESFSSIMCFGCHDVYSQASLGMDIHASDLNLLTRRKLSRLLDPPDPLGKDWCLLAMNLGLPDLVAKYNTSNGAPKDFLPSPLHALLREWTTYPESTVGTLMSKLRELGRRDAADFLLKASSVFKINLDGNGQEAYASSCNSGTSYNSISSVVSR
Sequence of 140 purified human kinases (Homo sapiens, UniProt O75116) (O75116 whole entry): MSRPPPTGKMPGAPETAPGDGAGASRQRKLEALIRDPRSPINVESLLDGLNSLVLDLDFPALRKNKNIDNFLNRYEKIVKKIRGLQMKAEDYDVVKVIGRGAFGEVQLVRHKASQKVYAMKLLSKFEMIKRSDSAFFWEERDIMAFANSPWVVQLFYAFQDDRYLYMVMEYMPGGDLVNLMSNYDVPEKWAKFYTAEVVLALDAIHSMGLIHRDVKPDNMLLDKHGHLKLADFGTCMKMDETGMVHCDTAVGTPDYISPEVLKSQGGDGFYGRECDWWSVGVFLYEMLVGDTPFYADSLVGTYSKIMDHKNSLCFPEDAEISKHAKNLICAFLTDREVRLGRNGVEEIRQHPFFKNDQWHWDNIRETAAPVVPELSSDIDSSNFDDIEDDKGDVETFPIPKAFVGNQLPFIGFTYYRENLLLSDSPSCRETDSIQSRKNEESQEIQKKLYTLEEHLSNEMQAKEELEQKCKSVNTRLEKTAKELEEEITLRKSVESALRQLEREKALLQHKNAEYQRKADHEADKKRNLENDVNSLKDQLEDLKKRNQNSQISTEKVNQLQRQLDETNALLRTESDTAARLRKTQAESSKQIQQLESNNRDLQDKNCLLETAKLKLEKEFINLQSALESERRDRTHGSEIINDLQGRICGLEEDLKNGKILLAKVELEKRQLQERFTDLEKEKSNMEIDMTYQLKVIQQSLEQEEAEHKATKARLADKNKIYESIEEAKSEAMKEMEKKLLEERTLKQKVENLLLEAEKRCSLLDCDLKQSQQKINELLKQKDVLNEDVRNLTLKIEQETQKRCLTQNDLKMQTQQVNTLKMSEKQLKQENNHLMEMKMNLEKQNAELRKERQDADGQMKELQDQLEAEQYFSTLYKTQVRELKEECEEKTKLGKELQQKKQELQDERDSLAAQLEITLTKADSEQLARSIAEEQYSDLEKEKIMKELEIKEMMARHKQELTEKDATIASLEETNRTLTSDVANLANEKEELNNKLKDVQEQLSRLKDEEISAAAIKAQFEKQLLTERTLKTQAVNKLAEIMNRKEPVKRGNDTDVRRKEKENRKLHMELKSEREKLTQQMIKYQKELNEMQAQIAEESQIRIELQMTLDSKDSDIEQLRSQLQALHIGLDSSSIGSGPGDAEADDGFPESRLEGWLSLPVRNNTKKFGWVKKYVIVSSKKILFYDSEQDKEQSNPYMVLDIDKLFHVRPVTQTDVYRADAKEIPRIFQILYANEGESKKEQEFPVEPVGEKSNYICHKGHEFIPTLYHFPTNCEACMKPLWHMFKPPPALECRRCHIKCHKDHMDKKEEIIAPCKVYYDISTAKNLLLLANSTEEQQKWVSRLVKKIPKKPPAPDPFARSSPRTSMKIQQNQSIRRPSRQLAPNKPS
Sequence of 140 purified human kinases (Homo sapiens, UniProt Q9P0L2) (Q9P0L2 whole entry): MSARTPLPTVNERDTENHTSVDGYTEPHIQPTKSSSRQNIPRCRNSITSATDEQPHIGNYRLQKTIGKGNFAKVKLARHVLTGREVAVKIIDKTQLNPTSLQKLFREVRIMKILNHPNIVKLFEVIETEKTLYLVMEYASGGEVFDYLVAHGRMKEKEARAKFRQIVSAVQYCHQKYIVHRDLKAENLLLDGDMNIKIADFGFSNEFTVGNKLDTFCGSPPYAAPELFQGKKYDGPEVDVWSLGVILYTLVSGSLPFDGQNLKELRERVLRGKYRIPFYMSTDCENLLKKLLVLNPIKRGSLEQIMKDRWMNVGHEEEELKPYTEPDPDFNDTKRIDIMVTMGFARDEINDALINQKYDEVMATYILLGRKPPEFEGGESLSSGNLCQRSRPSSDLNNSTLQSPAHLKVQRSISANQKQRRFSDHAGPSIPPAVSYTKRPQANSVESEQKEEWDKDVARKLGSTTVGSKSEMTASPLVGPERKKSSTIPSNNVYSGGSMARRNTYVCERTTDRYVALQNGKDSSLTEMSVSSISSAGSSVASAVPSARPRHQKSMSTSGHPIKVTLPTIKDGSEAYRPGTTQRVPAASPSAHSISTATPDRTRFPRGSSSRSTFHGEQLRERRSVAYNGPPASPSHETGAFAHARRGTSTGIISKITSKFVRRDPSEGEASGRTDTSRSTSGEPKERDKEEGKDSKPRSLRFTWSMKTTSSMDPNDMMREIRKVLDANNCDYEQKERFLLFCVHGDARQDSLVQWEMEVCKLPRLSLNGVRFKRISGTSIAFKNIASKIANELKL

[Cu+2].[Cu+2].[Cu+2].c1ccc(-c2csc(NCCN(CCNc3nc(-c4ccccn4)cs3)CCNc3nc(-c4ccccn4)cs3)n2)nc1.c1ccc(-c2csc(NCCN(CCNc3nc(-c4ccccn4)cs3)CCNc3nc(-c4ccccn4)cs3)n2)nc1 [[L2Cu3]6+]
% Inhibition Run 1 [1]: 83.5%
% Inhibition Run 2 [1]: 77.5%
% Inhibition, Mean [1]: 81%
mean % activity [1]: 20%
% Inhibition Run 1 [2]: 28.1%
% Inhibition Run 2 [2]: 27.2%
% Inhibition, Mean [2]: 28%
mean % activity [2]: 72%
% activity ([2]; Run 1): 71.9%
% activity ([2]; Run 2): 72.8%
% Inhibition Run 1 ([3]; MARK2): 29.8%
% Inhibition Run 2 ([3]; MARK2): 21.6%
% Inhibition, Mean ([3]; MARK2): 26%
mean % activity ([3]; MARK2): 74%
% activity ([3]; MARK2, Run 1): 70.2%
% activity ([3]; MARK2, Run 2): 78.4%
% Inhibition Run 1 ([4]; DYRK3): 42.6%
% Inhibition Run 2 ([4]; DYRK3): 40.9%
% Inhibition, Mean ([4]; DYRK3): 42%
mean % activity ([4]; DYRK3): 58%
% activity ([4]; DYRK3, Run 1): 57.4%
% activity ([4]; DYRK3, Run 2): 59.1%
% Activation, Mean value ([5]; DAPK1): 1.5%
% Inhibition Run 1 ([5]; DAPK1): 6.2%
% Inhibition Run 2 ([5]; DAPK1): -9.2%
% Inhibition, Mean ([5]; DAPK1): -1.5%
mean % activity ([5]; DAPK1): 102%
% activity ([5]; DAPK1, Run 1): 93.8%
% activity ([5]; DAPK1, Run 2): 109.2%
% Inhibition Run 1 ([6]; MKK6): 75.4%
% Inhibition Run 2 ([6]; MKK6): 83.7%
% Inhibition, Mean ([6]; MKK6): 80%
mean % activity ([6]; MKK6): 20%
% activity ([6]; MKK6, Run 1): 24.6%
% activity ([6]; MKK6, Run 2): 16.3%
% Inhibition Run 1 [7]: 12.7%
% Inhibition Run 2 [7]: -5.2%
% Inhibition, Mean [7]: 3.75%
mean % activity [7]: 96%
% activity ([7]; Run 1): 87.3%
% activity ([7]; Run 2): 105.2%
% Inhibition Run 1 ([8]; MARK1): 26.5%
% Inhibition Run 2 ([8]; MARK1): 16.9%
% Inhibition, Mean ([8]; MARK1): 22%
mean % activity ([8]; MARK1): 78%
% activity ([8]; MARK1, Run 1): 73.5%
% activity ([8]; MARK1, Run 2): 83.1%
% Inhibition Run 1 ([9]; TBK1): 60.3%
% Inhibition Run 2 ([9]; TBK1): 64%
% Inhibition, Mean ([9]; TBK1): 62%
mean % activity ([9]; TBK1): 38%
% activity ([9]; TBK1, Run 1): 39.7%
% activity ([9]; TBK1, Run 2): 36%

CC(=O)[O-].CC(=O)[O-].CC(=O)[O-].CC(=O)[O-].CC(=O)[O-].CC(=O)[O-].[Zn+2].[Zn+2].[Zn+2].c1ccc(-c2csc(NCCN(CCNc3nc(-c4ccccn4)cs3)CCNc3nc(-c4ccccn4)cs3)n2)nc1.c1ccc(-c2csc(NCCN(CCNc3nc(-c4ccccn4)cs3)CCNc3nc(-c4ccccn4)cs3)n2)nc1 [[L2Zn3]6+]
% Activation, Mean value [1]: 17%
% Inhibition, Mean [1]: -17%
% Inhibition, Run 1 / Run 2 [1]: -20% and -14%
mean % activity [1]: 117%
% Activity Run 1 ([1]; 10 µM): 120.0%
% Activity Run 2 ([1]; 10 µM): 114.0%
% activity ([1]; duplicate runs): 120% and 114%
% Inhibition, Mean [2]: 17%
mean % activity [2]: 83%
% activity ([2]; duplicate runs): 73% and 93%
% Inhibition, Mean ([3]; MARK2): 34%
% Inhibition, Run 1 / Run 2 ([3]; MARK2): 45% and 24%
mean % activity ([3]; MARK2): 66%
% activity ([3]; MARK2, duplicate runs): 56% and 76%
% Inhibition, Mean ([4]; DYRK3): 30%
% Inhibition, Run 1 / Run 2 ([4]; DYRK3): 32% and 28%
mean % activity ([4]; DYRK3): 70%
% activity ([4]; DYRK3, duplicate runs): 68% and 72%
% Activation, Mean value ([5]; DAPK1): 16%
% Inhibition, Mean ([5]; DAPK1): -16%
% Inhibition, Run 1 / Run 2 ([5]; DAPK1): -12% and -21%
mean % activity ([5]; DAPK1): 116%
% Activity Run 1 ([5]; DAPK1, 10 µM): 112.0%
% Activity Run 2 ([5]; DAPK1, 10 µM): 121.0%
% activity ([5]; DAPK1, duplicate runs): 112% and 121%
% Inhibition, Mean ([6]; MKK6): 48%
% Inhibition, Run 1 / Run 2 ([6]; MKK6): 59% and 37%
mean % activity ([6]; MKK6): 52%
% activity ([6]; MKK6, duplicate runs): 41% and 63%
% Inhibition, Mean [7]: 16%
mean % activity [7]: 84%
% activity ([7]; duplicate runs): 72% and 95%
% Inhibition, Mean ([8]; MARK1): 23%
% Inhibition, Run 1 / Run 2 ([8]; MARK1): 26% and 20%
mean % activity ([8]; MARK1): 77%
% activity ([8]; MARK1, duplicate runs): 74% and 80%
% Inhibition, Mean ([9]; TBK1): 13%
mean % activity ([9]; TBK1): 87%
% activity ([9]; TBK1, duplicate runs): 81% and 93%
